Laboratory results as given in ChEMBL document CHEMBL1152723, “Remarkable enhancement in the DNA-binding ability of C2-fluoro substituted pyrrolo[2,1-c][1,4]benzodiazepines and their anticancer potential” (2009).

Tests used:
[1] = test system: DNA; assay: Binding affinity to calf thymus DNA assessed as change in melting temperature at a compound to DNA molar ratio of 1:5 at pH 7 by thermal denaturation assay; assay type: nucleic-acid assay; conditions: Bos taurus
[2] = biological target: T1, Type II restriction enzyme BamHI (Bacillus amyloliquefaciens) (UniProt P23940); assay: Inhibition of Bacillus amyloliquefaciens BamH1-mediated pBR322 cleavage after 16 hrs by RED100-restriction endonuclease digestion assay
T1 sequence (whole entry): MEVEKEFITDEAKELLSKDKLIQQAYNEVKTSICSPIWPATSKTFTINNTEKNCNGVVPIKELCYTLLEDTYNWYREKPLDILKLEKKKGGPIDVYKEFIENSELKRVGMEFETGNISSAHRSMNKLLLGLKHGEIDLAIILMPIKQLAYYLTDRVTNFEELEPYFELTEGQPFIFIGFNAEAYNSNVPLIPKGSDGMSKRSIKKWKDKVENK

Compound	ΔTm [1] [°C]	Activity [2]
COc1cc2c(cc1OCCCCOc1cc3c(cc1OC)C(=O)N1CC(F)(F)C[C@H]1C=N3)N=C[C@@H]1CC(F)(F)CN1C2=O	4.2	
COc1cc2c(cc1OCCCN1CCN(CCCOc3cc4c(cc3OC)C(=O)N3CC(=C(F)F)C[C@H]3C=N4)CC1)N=C[C@@H]1CC(=C(F)F)CN1C2=O	28.9	Dose-dependent effect
COc1cc2c(cc1OCCCCCN1CCN(CCCCCOc3cc4c(cc3OC)C(=O)N3CC(F)C[C@H]3C=N4)CC1)N=C[C@@H]1CC(F)CN1C2=O (some centres not stated)	37	
COc1cc2c(cc1OCCCCN1CCN(CCCCOc3cc4c(cc3OC)C(=O)N3CC(F)(F)C[C@H]3C=N4)CC1)N=C[C@@H]1CC(F)(F)CN1C2=O	14	
COc1cc2c(cc1OCCCCCN1CCN(CCCCCOc3cc4c(cc3OC)C(=O)N3CC(F)(F)C[C@H]3C=N4)CC1)N=C[C@@H]1CC(F)(F)CN1C2=O	13	
COc1cc2c(cc1OCCCCCOc1cc3c(cc1OC)C(=O)N1CC(F)(F)C[C@H]1C=N3)N=C[C@@H]1CC(F)(F)CN1C2=O	18.9	
